Measurements: patent publication US9771366B2, “Substituted tetrahydropyrido[3′,2′:4,5]pyrrolo[1,2-a]pyrazine-2-carboxamides as RSK inhibitors” (Phoenix Molecular Designs, priority 2016, dated 2017)
“Also recorded” adds a separate entry of the source. Structures can show the parent of a compound that is named as a salt.

Experiments:
[1] = system: CD34+ cells; assay: Colony forming unit hematopoietic stem cell assay; format: cell-based, human; details: ratio of IC50 values against CD34+ cells and MDA-MB-231 cells
Description: The hematopoietic colony forming cell assay was conducted based on a protocol outlined by StemCell Technologies. […] Following the addition of CD34^+ cells isolated from human cord blood or peripheral blood (StemCell Technologies) at a final concentration of 5×10^2 cells per dish, the tubes were vortexed and allowed to stand for 5 minutes at room temperature. Next, the MethoCult mixtures were dispensed into 35 mm dishes (Corning Incorporated) through blunt end needles (StemCell Technologies) and 5 ml syringes (BD Biosciences) at a volume of 1.1 ml per dish. The medium was evenly distributed across the surface of each dish by gentle tilting and rotation. The dishes were then placed in a 100 mm culture dish (Grenier Bio-One) containing additional 35 mm dishes with sterile water to maintain humidity. The culture dish was then placed at 37° C. in a humidified incubator containing 5% CO2 for 13 days. The number of myeloid and erythroid derived colonies in both the treated and control dishes were counted and compared.

[2] = Solubility assessment at 20 mg/ml; format: physicochemical; details: for 20 mg/ml Solubility: dissolved in DMSO; for pH: 20 mg/ml solution
Description: Solubility is an important property for therapeutic drug candidates. Poor solubility can lead to low bioavailability resulting in suboptimal drug delivery. It can also prevent the evaluation of test agents in animals because the concentration(s) needed to achieve the desired effect cannot be achieved to poor solubility. For solubility assessments, small molecules targeting RSK were compared. For these assessments, 100 mM solutions of the compounds dissolved in DMSO were diluted in DMEM growth media (Life Technologies) supplemented with fetal bovine serum (FBS, Life Technologies) and 100 units/ml penicillin and 100 units/ml streptomycin (Life Technologies) to make 20 mg/ml solutions. Once diluted, the solutions were vortexed and examined for the formation of precipitates. […] For Compound 26, a 100 mM solution of the compound dissolved in DMSO was diluted in phosphate buffered saline (Life Technologies) to make a 20 mg/ml solution. The stock of […] was chosen because this is the upper end of what would be required to dose mice for a range of studies including MTD, PK, PD and efficacy. The pH of this solution was determined to be 2, as previously described. […] At high concentrations some RSK inhibitors were highly soluble while others were not. Compound 0 is (R)—N-(1-benzyl-1H-pyrazol-4-yl)-9-methyl-6-oxo-6,7,8,9-tetrahydropyrido[3′,2′:4,5]pyrrolo[1,2-a]pyrazine-2-carboxamide. Compound 0 was not soluble, whereas Compounds 18, 20, 21, 25 and 26 were soluble under the same conditions (Table 5).

[3] = molecular target: RSK2 (Homo sapiens (Human), UniProt P51812); assay: Radioisotope kinase assay (SignalChem), RSK2; format: biochemical
Sequence of RSK2 (P51812 whole entry): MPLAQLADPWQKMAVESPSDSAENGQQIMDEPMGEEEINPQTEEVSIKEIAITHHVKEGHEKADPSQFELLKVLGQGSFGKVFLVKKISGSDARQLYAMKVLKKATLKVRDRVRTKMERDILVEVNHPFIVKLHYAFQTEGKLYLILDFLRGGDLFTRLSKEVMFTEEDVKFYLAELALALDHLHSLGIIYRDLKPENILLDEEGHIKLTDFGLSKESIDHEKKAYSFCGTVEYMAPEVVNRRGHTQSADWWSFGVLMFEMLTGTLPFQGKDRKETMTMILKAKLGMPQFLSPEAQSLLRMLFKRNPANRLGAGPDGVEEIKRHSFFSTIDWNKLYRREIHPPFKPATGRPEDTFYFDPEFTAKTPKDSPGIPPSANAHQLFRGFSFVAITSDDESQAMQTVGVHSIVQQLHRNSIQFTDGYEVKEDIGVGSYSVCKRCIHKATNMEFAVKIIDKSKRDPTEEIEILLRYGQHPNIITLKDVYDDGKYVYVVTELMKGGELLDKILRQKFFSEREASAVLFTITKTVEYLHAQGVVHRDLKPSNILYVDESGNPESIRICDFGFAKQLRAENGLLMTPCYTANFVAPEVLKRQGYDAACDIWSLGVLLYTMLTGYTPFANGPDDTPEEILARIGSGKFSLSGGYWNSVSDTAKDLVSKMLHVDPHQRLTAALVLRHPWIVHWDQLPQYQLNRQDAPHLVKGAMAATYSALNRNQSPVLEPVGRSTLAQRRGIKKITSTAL
Description: The assay conditions for the RSK2 kinase target were optimized to yield acceptable enzymatic activity. In addition, the assays were optimized to give high signal-to-noise ratio.
Radioisotope assays (SignalChem) were performed for the evaluation of the kinase target profiling and all assays were performed in a designated radioactive working area. The kinase targets were RSK1, RSK2, RSK3, RSK4 and MK2.
The assay was initiated by the addition of ^33P-ATP and the reaction mixture incubated at 30° C. for 15 minutes. After the incubation period, the assay was terminated by spotting 10 μL of the reaction mixture onto Multiscreen phosphocellulose P81 plate. The Multiscreen phosphocellulose P81 plate was washed 3 times for approximately 15 minutes each in a 1% phosphoric acid solution. The radioactivity on the P81 plate was counted in the presence of scintillation fluid in a Trilux scintillation counter.
Blank controls were set up for each target kinase which included all the assay components except the addition of the appropriate substrate (which was replaced with equal volume of assay dilution buffer). The corrected activity for each target kinase was determined by removing the blank control value.

Row | SMILES | 20 mg/ml Solubility ([2]; diluted in DMEM) | IC50 [3] [µM] | also measured
1 | C[C@@H]1CNC(=O)c2cc3ccc(C(=O)Nc4cnn(Cc5ccccc5)c4)nc3n21 [Compound 0, (R)—N-(1-benzyl-1H-pyrazol-4-yl)-9-methyl-6-oxo-6,7,8,9-tetrahydropyrido[3′,2′:4,5]pyrrolo[1,2-a]pyrazine-2-carboxamide, reference compound] | not soluble; also recorded: Precipitate |  | Therapeutic Window [1]: 50X; solubility for systemic delivery / pharmacodynamics evaluation ([2]; mice): poor or nonexistent solubility
2 | C[C@@H]1CNC(=O)c2cc3ccc(NC(=O)c4cnn(Cc5ccccc5)c4)cc3n21 [Compound 11, (R)-1-benzyl-N-(4-methyl-1-oxo-1,2,3,4-tetrahydropyrazino[1,2-a]indol-7-yl)-1H-pyrazole-4-carboxamide] |  | 1.38 | 
3 | C[C@@H]1CNC(=O)c2cc3ccc(C(=O)Nc4cnn(Cc5ccccc5N)c4)nc3n21 [Compound 17, (R)—N-(1-(2-aminobenzyl)-1H-pyrazol-4-yl)-9-methyl-6-oxo-6,7,8,9-tetrahydropyrido[3′,2′:4,5]pyrrolo[1,2-a]pyrazine-2-carboxamide] |  | 0.014 | 
4 | C[C@@H]1CNC(=O)c2cc3ccc(C(=O)Nc4cnn(CC5CCN(C)CC5)c4)nc3n21 [Compound 20, (R)-9-methyl-N-(1-((1-methylpiperidin-4-yl)methyl)-1H-pyrazol-4-yl)-6-oxo-6,7,8,9-tetrahydropyrido[3′,2′:4,5]pyrrolo[1,2-a]pyrazine-2-carboxamide] | Soluble | 0.124 | pH ([2]; DMSO diluted in DMEM): 8
5 | C[C@@H]1CNC(=O)c2cc3ccc(C(=O)Nc4cnn(Cc5ccc(CN)cc5)c4)nc3n21 [Compound 26, (R)—N-(1-(4-(aminomethyl)benzyl)-1H-pyrazol-4-yl)-9-methyl-6-oxo-6,7,8,9-tetrahydropyrido[3′,2′:4,5]pyrrolo[1,2-a]pyrazine-2-carboxamide hydrochloride salt] |  |  | pH at which the compound remained in solution ([2]; 20 mg/ml in PBS after 4M NaOH was added): 9; pH ([2]; DMSO diluted in PBS, hydrochloride salt): 2-9; 20 mg/ml Solubility ([2]; diluted in PBS, hydrochloride salt): Soluble
6 | CC(=O)O[C@H]1C(=O)[C@@]2(C)[C@H]([C@H](OC(=O)c3ccccc3)[C@]3(O)C[C@H](OC(=O)[C@H](O)[C@@H](NC(=O)c4ccccc4)c4ccccc4)C(C)=C1C3(C)C)[C@]1(OC(C)=O)CO[C@@H]1C[C@@H]2O [Taxol, paclitaxel, reference compound] |  |  | Therapeutic Window [1]: 6.9X

The next lines start with results.

Row | 20 mg/ml Solubility ([2]; diluted in DMEM) | IC50 [3] [µM] | SMILES | also measured
7 | Soluble |  | C[C@@H]1CNC(=O)c2cc3ccc(C(=O)Nc4ccccc4C(N)=O)nc3n21 [Compound 21, (R)—N-(2-carbamoylphenyl)-9-methyl-6-oxo-6,7,8,9-tetrahydropyrido[3′,2′:4,5]pyrrolo[1,2-a]pyrazine-2-carboxamide] | pH ([2]; DMSO diluted in DMEM): 9
8 | Precipitate |  | C[C@@H]1CNC(=O)c2cc3ccc(C(=O)Nc4cnn(Cc5ccc(C(F)(F)F)cc5)c4)nc3n21 [Compound 22, (R)-9-methyl-6-oxo-N-(1-(4-(trifluoromethyl)benzyl)-1H-pyrazol-4-yl)-6,7,8,9-tetrahydropyrido[3′,2′:4,5]pyrrolo[1,2-a]pyrazine-2-carboxamide] | 
9 | Precipitate |  | C[C@@H]1CNC(=O)c2c(Cl)c3ccc(C(=O)Nc4cnn(Cc5ccccc5)c4)nc3n21 [Compound 24, (R)—N-(1-benzyl-1H-pyrazol-4-yl)-5-chloro-9-methyl-6-oxo-6,7,8,9-tetrahydropyrido[3′,2′:4,5]pyrrolo[1,2-a]pyrazine-2-carboxamide] | 
